Key:
panel of 468 kinases [1] = biological target: T1, panel of 468 kinases (Homo sapiens, UniProt O14578); experiment: KINOMEscan (ScanMAX) kinase profiling; type: binding; details: CIT; 1 μM; read-out: % control
T1 construct: purchased KINOMEscan (ScanMAX) service

panel of 468 kinases [2] = biological target: T2, panel of 468 kinases (Homo sapiens, UniProt P36888, K663Q); experiment: KINOMEscan (ScanMAX) kinase profiling; type: binding; details: FLT3(K663Q); 1 μM; read-out: % control
T2 construct: purchased KINOMEscan (ScanMAX) service
T2 sequence (P36888 27-993 K663Q): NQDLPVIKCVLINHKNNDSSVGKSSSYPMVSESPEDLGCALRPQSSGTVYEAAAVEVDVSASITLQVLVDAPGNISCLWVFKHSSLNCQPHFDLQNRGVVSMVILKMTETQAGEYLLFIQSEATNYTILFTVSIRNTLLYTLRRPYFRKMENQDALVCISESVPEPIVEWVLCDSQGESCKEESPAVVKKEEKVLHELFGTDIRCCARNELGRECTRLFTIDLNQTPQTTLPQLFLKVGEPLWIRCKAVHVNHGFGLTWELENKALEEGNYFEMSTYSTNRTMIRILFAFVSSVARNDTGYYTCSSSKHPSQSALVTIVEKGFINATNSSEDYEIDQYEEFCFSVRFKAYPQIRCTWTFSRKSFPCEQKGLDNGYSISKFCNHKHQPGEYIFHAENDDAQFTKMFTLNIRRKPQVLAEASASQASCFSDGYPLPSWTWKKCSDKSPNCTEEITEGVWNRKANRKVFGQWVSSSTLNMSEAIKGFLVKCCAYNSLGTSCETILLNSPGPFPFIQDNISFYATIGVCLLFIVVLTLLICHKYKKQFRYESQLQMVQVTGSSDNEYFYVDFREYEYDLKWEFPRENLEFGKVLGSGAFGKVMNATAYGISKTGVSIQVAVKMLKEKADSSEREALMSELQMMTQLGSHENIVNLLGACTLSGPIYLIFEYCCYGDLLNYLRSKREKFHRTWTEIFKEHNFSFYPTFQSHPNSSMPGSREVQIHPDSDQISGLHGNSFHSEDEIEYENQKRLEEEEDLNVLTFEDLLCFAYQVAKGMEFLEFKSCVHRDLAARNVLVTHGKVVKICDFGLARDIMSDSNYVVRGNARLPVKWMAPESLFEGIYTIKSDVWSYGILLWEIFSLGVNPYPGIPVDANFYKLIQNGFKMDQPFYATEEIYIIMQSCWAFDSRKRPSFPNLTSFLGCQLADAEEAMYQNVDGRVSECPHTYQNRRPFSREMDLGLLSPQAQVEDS

panel of 468 kinases [3] = biological target: T3, panel of 468 kinases (Homo sapiens, UniProt Q12852); experiment: KINOMEscan (ScanMAX) kinase profiling; type: binding; details: DLK; 1 μM; read-out: % control
T3 construct: purchased KINOMEscan (ScanMAX) service
T3 sequence (Q12852 1-859): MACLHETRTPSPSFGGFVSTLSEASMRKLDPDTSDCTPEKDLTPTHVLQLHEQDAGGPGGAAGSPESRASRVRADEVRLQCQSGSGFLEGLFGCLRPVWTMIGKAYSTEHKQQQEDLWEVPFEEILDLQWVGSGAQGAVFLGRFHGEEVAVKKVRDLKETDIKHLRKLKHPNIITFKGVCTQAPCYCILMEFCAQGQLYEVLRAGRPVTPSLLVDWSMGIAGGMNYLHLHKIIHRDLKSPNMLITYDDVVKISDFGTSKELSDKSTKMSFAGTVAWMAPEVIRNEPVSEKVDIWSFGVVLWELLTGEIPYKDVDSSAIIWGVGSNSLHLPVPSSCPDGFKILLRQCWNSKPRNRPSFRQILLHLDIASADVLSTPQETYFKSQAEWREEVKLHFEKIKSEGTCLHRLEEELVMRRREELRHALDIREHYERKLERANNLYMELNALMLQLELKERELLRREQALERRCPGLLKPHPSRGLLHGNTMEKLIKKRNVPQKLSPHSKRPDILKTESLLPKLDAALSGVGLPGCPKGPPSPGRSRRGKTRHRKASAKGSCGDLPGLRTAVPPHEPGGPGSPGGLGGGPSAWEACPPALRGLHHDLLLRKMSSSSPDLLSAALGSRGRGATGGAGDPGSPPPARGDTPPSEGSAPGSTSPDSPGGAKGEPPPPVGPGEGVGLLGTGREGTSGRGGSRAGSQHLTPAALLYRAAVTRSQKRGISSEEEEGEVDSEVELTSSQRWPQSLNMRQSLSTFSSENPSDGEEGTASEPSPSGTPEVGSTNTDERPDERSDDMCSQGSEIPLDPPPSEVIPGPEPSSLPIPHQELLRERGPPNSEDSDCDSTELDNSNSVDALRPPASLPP

wild-type LRKK2 = biological target: T4, wild-type LRKK2 (Mus musculus, UniProt Q5S006); experiment: LRRK2 immunoblot, phosphorylation of Ser935, NIH-3T3 cell lysates; type: cell-based; details: FIG. 1
T4 construct: endogenous in cells; host or cells: NIH-3T3
T4 sequence (Q5S006 whole entry): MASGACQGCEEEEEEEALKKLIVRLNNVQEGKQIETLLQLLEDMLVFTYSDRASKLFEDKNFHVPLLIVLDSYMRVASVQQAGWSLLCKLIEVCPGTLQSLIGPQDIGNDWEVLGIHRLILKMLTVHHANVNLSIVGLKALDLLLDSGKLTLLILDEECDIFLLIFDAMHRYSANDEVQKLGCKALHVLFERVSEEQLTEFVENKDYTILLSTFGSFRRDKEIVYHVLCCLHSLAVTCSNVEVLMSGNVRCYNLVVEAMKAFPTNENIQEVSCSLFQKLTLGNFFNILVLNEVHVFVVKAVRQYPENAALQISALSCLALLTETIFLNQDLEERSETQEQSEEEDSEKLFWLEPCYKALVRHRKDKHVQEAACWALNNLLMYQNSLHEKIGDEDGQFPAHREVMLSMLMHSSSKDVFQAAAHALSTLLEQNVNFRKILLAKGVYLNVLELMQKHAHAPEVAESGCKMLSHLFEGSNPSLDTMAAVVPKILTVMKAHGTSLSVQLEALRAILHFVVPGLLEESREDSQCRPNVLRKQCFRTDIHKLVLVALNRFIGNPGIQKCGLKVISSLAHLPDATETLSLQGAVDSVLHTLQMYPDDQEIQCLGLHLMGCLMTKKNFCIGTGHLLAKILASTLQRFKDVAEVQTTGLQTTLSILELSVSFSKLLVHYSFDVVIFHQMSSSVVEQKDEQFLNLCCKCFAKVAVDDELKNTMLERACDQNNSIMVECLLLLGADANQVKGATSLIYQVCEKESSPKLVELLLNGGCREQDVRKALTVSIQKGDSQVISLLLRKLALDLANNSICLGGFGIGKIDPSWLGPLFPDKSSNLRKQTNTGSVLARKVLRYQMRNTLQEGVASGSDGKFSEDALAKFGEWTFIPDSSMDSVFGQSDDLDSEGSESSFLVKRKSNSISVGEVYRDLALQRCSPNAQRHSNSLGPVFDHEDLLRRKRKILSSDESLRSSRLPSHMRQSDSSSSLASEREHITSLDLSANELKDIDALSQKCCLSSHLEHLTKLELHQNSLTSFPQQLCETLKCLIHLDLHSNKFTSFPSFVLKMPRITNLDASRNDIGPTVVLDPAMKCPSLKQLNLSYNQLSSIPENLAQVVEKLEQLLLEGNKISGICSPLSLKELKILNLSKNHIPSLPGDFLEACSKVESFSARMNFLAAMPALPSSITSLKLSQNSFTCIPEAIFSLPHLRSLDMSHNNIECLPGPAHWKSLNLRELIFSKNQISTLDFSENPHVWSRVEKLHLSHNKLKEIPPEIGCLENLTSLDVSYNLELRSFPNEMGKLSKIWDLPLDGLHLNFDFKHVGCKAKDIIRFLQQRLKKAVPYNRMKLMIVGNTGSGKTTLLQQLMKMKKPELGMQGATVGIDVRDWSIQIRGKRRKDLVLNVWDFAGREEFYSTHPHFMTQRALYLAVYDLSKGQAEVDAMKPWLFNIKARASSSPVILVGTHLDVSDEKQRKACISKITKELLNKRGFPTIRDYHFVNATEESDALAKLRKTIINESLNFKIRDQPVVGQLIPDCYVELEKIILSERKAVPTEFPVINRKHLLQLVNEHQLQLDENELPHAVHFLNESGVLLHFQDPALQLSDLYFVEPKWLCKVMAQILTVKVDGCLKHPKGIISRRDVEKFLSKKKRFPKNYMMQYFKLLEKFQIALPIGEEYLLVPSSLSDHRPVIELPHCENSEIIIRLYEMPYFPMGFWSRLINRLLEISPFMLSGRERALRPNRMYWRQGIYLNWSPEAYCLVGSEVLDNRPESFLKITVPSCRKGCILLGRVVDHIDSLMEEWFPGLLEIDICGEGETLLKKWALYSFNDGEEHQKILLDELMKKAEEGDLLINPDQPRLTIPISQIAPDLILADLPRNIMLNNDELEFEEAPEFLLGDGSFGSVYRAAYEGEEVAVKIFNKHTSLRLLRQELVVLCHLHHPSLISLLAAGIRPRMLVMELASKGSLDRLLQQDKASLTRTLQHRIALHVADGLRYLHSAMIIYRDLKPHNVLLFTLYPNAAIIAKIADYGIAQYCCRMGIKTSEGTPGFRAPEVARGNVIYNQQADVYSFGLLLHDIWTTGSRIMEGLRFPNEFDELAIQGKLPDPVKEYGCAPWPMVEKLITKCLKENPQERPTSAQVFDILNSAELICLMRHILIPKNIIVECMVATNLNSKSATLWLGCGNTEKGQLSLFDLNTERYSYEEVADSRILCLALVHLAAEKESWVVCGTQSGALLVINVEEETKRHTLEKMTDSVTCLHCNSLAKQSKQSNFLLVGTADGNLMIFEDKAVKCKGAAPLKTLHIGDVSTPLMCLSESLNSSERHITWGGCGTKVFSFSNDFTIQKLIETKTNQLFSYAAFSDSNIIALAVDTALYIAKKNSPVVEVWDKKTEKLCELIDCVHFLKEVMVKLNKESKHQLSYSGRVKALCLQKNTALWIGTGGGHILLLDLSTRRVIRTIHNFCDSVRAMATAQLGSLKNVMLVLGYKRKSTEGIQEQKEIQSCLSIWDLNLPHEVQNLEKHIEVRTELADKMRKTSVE
Description: Cell lysates were extracted from the NIH-3T3 cell pellet using lysis buffer (40 mM Tris-HCl pH 8.0, 120 mM NaCl, 0.10% Nonidet™-P40) supplemented with protease inhibitors. Proteins in whole-cell lysates were separated by SDS-PAGE and transferred to an Amersham™ nitrocellulose membrane (Amersham, UK). Nitrocellulose membranes were blocked with 5% skim milk in phosphate-buffered saline containing Tween 20 and incubated with primary antibodies overnight at 4° C. The blots were then incubated with the appropriate horseradish peroxidase (HRP)-conjugated secondary antibodies and proteins were visualized by enhanced chemiluminescence, according to the manufacturer's protocol (Amersham™ Western blotting). Secondary antibodies, anti-rabbit IgG-HRP were purchased from Cell Signaling technology. Immunoblot film were scanned on a LAS500 scanner, and images were managed with Adobe Photoshop

T1 sequence (O14578 whole entry): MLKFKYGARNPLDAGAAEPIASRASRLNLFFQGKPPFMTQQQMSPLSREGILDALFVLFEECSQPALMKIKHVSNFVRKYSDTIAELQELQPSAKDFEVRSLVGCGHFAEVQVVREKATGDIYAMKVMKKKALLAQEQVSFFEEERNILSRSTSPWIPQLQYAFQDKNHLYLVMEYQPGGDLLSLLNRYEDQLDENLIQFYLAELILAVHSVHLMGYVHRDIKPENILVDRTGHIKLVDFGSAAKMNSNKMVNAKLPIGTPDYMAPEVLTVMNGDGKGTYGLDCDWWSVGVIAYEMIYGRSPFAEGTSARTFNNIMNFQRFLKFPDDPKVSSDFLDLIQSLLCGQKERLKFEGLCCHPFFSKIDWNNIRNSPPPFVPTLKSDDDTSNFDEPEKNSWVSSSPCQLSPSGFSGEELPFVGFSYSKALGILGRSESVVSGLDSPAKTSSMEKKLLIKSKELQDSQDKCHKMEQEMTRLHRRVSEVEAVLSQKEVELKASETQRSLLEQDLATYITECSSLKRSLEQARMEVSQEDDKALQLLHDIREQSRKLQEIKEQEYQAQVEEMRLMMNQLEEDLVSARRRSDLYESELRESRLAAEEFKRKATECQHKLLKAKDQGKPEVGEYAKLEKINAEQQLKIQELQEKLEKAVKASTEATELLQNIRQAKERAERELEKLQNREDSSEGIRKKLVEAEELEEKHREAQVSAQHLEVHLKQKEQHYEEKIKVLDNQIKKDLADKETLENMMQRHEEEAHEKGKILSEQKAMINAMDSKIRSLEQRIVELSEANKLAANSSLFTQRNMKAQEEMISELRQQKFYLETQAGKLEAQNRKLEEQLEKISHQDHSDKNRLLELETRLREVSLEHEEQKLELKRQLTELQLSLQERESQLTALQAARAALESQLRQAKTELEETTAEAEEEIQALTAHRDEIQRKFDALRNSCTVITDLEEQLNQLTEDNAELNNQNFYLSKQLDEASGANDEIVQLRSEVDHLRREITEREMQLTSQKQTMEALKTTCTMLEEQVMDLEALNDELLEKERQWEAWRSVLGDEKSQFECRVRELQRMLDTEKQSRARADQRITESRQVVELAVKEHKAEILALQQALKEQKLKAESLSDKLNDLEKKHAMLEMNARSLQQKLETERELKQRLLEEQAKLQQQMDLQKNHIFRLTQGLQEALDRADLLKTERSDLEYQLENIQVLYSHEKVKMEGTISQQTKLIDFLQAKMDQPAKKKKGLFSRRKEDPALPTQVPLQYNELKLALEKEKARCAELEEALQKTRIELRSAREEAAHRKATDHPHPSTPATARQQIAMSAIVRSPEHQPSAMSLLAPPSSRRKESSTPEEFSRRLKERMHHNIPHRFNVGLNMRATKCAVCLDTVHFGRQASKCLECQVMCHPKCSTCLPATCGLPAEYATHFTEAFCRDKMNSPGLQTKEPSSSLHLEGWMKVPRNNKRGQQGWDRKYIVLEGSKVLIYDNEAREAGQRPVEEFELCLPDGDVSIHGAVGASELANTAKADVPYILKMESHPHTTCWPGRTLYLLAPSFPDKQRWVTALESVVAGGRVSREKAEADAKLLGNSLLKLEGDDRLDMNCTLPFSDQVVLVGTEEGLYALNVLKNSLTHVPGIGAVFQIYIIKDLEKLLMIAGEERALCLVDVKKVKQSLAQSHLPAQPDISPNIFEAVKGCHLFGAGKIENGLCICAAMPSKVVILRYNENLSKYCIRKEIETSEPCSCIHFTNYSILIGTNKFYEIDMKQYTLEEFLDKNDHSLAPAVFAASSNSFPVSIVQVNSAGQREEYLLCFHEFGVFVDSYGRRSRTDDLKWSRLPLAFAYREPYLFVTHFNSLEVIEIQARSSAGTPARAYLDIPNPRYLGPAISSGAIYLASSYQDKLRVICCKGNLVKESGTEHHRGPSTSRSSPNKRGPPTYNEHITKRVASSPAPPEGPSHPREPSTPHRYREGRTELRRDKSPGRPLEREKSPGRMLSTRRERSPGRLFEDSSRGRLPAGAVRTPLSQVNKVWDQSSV

| SMILES | remaining binding at 1 µM (panel of 468 kinases [1]) | remaining binding at 1 µM (panel of 468 kinases [2]) | remaining binding at 1 µM (panel of 468 kinases [3]) | inhibition of the phosphorylation of Ser935 in wild-type LRKK2 (wild-type LRKK2) |
| --- | --- | --- | --- | --- |
| CNc1nc(Nc2ccc(S(=O)(=O)N3CCC(N4CCOCC4)CC3)cc2OC)nc2[nH]cc(Cl)c12 [Compound 12, 5-chloro-N2-(2-methoxy-4-((4-morpholinopiperidin-1-yl)sulfonyl)phenyl)-N4-methyl-7H-pyrrolo[2,3-d]pyrimidine-2,4-diamine] | 85% | 100% | 95% |  |
| CNc1nc(Nc2ccc(C(=O)N3CCC(N4CCOCC4)CC3)c3c2OCO3)nc2[nH]cc(Cl)c12 [Compound 75, (7-((5-chloro-4-(methylamino)-7H-pyrrolo[2,3-d]pyrimidin-2-yl)amino)benzo[d][1,3]dioxol-4-yl)(4-morpholinopiperidin-1-yl)methanone] | 35% | 72% | 100% |  |
| CNc1nc(Nc2ccc(P3(=O)CCN(C4CCOCC4)CC3)cc2OC)nc2[nH]cc(Cl)c12 [Compound 77, 4-(4-((5-chloro-4-(methylamino)-7H-pyrrolo[2,3-d]pyrimidin-2-yl)amino)-3-methoxyphenyl)-1-(tetrahydro-2H-pyran-4-yl)-1,4-azaphosphinane 4-oxide] | 93% | 99% | 100% | inhibited the phosphorylation of Ser935 in wild-type LRKK2 with potency similar to known LRRK2 inhibitor LRRK2-IN-1 |

Source: patent publication US12479847B2 (DANA-FARBER CANCER INSTITUTE, INC., priority 2019, dated 2025)
